Measured values reported in publication PMC12502323, “Discovery of small molecules with anthelmintic potential in the Medicines for Malaria Venture’s COVID and Global Health Priority Boxes using an infrared-based assay for Caenorhabditis elegans motility” (BMC Research Notes, 2025).
Values joined by “and” are separate entries in the source; they are usually repeats but may differ in a detail not shown here. Identical values can stand only once. Like-named read-outs stand apart in the source and are kept apart here.

What was measured:
[1] = system: C. elegans; conditions: read-out: EC50 previously recorded, cited from earlier work
[2] = system: Caenorhabditis elegans; experiment: Primary screen, infrared-based (WMicroTracker ONE) C. elegans L4 motility assay at 40 µM; assay type: cell-based, Caenorhabditis elegans (Bristol N2); conditions: primary screen at 40 µM; for C. elegans Mean motility vs. DMSO control (%): C. elegans L4; for C. elegans NOTES (HIT): hit if motility < 25%
Experimental: (§1) Methods to cultivate C. elegans (Bristol N2) and synchronize growth to the L4 stage were as described. WMicroTracker ONE (Phylumtech, Argentina) detects movement by measuring the scattering of infrared light beams that are projected into each well of a microtiter plate (two 880 nm beams/well in a 96w plate).
(§2) Synchronized C. elegans L4 were detached from agar and collected in M9 buffer. Worms were centrifuged for 1 min at 1,900 g and washed in S medium to decrease the concentration of E. coli OP50 that might interfere with infrared detection. Control and assay compounds (1 µL) in DMSO (Fisher Scientific, Cat# BP231-100) were spotted into each well of a clear, flat-bottomed 96-well polystyrene plate (Fisherbrand, Cat# FB012931). DMSO (1%) was used as the negative control. Approximately 70 L4 in 100 µL S medium were added per well. First pass screens employed 40 µM compound, and motility was measured every 20 min for 24 h in the WMicroTracker ONE reader in which the temperature was 25 ± 1 °C. Motility was normalized relative to the DMSO controls. Hits were defined as compounds that decreased motility to ≤ 25% of that in DMSO control worms.

[3] = system: Caenorhabditis elegans; experiment: Concentration response C. elegans L4 motility assay (WMicroTracker ONE), EC50; assay type: cell-based, Caenorhabditis elegans (Bristol N2); conditions: read-out: EC50 (motility)
Experimental: as §1, §2
For potent compounds, concentration response assays (nine concentrations: 0.005 µM to 40 or 100 µM) were conducted to measure the half-maximal effective concentration (EC50). Compounds were serially diluted in DMSO using 96-well, v-bottomed polypropylene dilution plates (ThermoFisher Scientific, Cat#: 249944) and 1 µL aliquots spotted into each well of the assay plates. Motility was measured as described above. Prism GraphPad, Version 8.0 (GraphPad Software, San Diego, CA) was used to calculate EC50 values using a non-linear sigmoidal four parameter logistic curve.

[4] = system: C. elegans L4; parameters: method as in PMID 38486232; conditions: GHPB screen, WMicroTracker ONE; cited from earlier work
[5] = system: Haemonchus contortus; parameters: method as in PMID 38486232; conditions: GHPB screen, WMicroTracker ONE; cited from earlier work
[6] = HEK293 cytotoxicity assay (resazurin); assay type: cell-based, Human; conditions: human, HEK293 cell viability after 48 h, read-out: CC50
Experimental: (§3) Potent compounds were also evaluated for cytotoxicity against HEK293 cells. Cells were cultured at 37 °C and 5% in Dulbecco’s Modified Eagle Medium (DMEM; Gibco, Cat#: 11965-092) containing 10% heat-inactivated fetal bovine serum (FBS; Omega Scientific Inc., Cat#: FB02) and 1% penicillin-streptomycin (ThermoFisher Scientific, Cat#: 15140122), and then sub-cultured when 60–80% confluent. Cells were detached with 0.05% trypsin/EDTA (ThermoFisher Scientific, Cat#: 25300054) and centrifuged for 5 min at 1,900 g.
(§4) Screens were performed over 11 compound concentrations (0.00007–40 µM) that had been prepared in DMSO. Aliquots (1 µL) were spotted into each well of a clear-bottomed, 96-well, polystyrene assay plate (Fisher Scientific, Cat#: FB012931). Approximately 20,000 HEK293 cells in 99 µL of the above supplemented DMEM were then added to each well. After 46 h at 37 °C and 5% CO2, 20 µL 0.5 mM resazurin (ThermoFisher Scientific, Cat#: B21187.03) were added and the incubation continued for 2 h at 37 °C [27]. Fluorescence was measured in a 2104 EnVision Multilabel Plate Reader (PerkinElmer) at 560 and 590 nm excitation and emission wavelengths, respectively. Raw data were exported from the EnVision Workstation software (version 1.13.3009.1401; PerkinElmer) into Prism GraphPad, and the half-maximal cytotoxic concentration (CC50) values were calculated using a non-linear regression curve.

[7] = system: HEK293 cells; experiment: HEK293 cytotoxicity assay (resazurin); assay type: cell-based, Human
Experimental: as §3, §4

Row | Molecule | C. elegans NOTES (HIT) [2] | hit in screen against C. elegans L4 [4] | C. elegans Mean motility vs. DMSO control (%) [2] [%] | hit in screen against exsheathed L3 of Haemonchus contortus [5] | other results
1 | ivermectin [reference compound] | HIT | – | – | – | EC50 ([1]; after 90 min): 190 ± 10 nM; C. elegans Mean motility vs. DMSO control (%) ([2]; listed as MMV672931): 3.37% and 9.96%; EC50 ([3]; C. elegans L4, after 1 h): 130 ± 51 nM
2 | CC(F)c1ncnc(NCCc2ccc(OC(F)(F)F)cc2)c1Cl (stereo not shown) [flufenerim] | HIT | hit | 0.26 | hit | EC50 ([3]; C. elegans L4, after 12 h): 211 ± 34 nM
3 | COc1ccc2c(c1)c(CC(=O)O)c(C)n2C(=O)c1ccc(Cl)cc1 [indomethacin, reference compound] | HIT | – | 18.64 | – | CC50 at 48 h ([6]; HEK293 cells): > 100000 nM; cytotoxicity to HEK293 cells (in words) ([7]; HEK293 cells): not cytotoxic; EC50 ([3]; Caenorhabditis elegans, C. elegans L4, after 24 h): 23200 ± 14100 nM
4 | O=C(Nc1ccc(Cl)c(C(F)(F)F)c1)Nc1ccc(Cl)c(C(F)(F)F)c1 [flucofuron] | HIT | hit only against the parasite | 20.31 | hit | CC50 ([7]; HEK293 cell viability after 48 h): 453 ± 331 nM; EC50 ([3]; C. elegans L4, after 24 h): 20600 ± 10700 nM
5 | CCc1nn(C)c(C(=O)NCc2ccc(Oc3ccc(C)cc3)cc2)c1Cl [tolfenpyrad] | HIT | – | 0.26 | – | EC50 ([1]; after 24 h): 200 ± 40 nM; CC50 at 48 h [6]: 33800 ± 31400 nM; EC50 ([3]; Caenorhabditis elegans, C. elegans L4, after 12 h): 950 ± 256 nM
